1 compound from patent US20240002376A1, “COMPOSITIONS AND METHODS FOR G-PROTEIN-COUPLED RECEPTOR 44 DETECTION” (City of Hope, priority 2020, published 2024) can be followed below.

Molecules are shown by their SMILES. Entries after “also recorded” stand apart in the source; their conditions may differ.

What all share (type): in vivo
Data set [1] is described as follows: Biodistribution of 18F GPR44 radioligand in healthy NOD/SCID mice. The protocol:
Bio-distribution analysis over time of a unique ^18F GPR44 radioligand in healthy NOD/SCID mice. The biodistribution of [^18F] Ab-1 was investigated in health NOD/SCID mice. The mice were administered doses of the radiotracer i.v. through the tail vein under general anesthesia. At 30, 60, and 90 minutes post-injection, mice were euthanized. The blood, lung, heart, liver, spleen, stomach, small and large intestines, muscle, kidney, pancreas and bone were collected, weighed, and radioactivity counted. […] We also injected cold unlabeled Ab-1, as a blocking agent, and collected the organs at 30 minutes post-injection. Organ uptake varied little from results obtained in mice given the radiotracer.

For a further data set, the system named is GPR44+1.1B4 cells. Put plainly: Biodistribution in NOD/SCID mice implanted with human beta-like 1.1B4 cells. The protocol: (§1) Preliminary studies confirmed that the human beta-like 1.1B4 cells express GPR44. However, it was not clear if the radiotracer would localize to these cells in living animals. We performed a biodistribution study in NOD/SCID mice post 3 weeks following implantation of 1.1B4 cells. The blocking agent was cold Ab-1. At 30 minutes post-injection, the mice with/without blocking agent were euthanized and organs were collected. […] For mice with transplanted study, 500 IEQ human islets were transplanted into NOD/SCID mice kidney capsule. We also performed the biodistribution study in the mice with human islets (FIG. 9). […] Ab-1. Further, [^18F]

The next data set relates to human islets. Nature of the data set: Biodistribution in NOD/SCID mice with human islets transplanted into kidney capsule. The settings on record: 500 IEQ human islets in kidney capsule. The protocol: as §1

Consider `CN(C1CCc2c(c3ccccc3n2CC(=O)O)C1)S(=O)(=O)c1ccc([18F])cc1` (centres unmarked) [[^18F] Ab-1], for which the “specific binding in murine tissues” value in data set [1] (blocking with cold Ab-1) is given as “no specific binding”. Moreover, the “uptake in the murine pancreas” value in data set [1] (i.v. tail vein, 30, 60 and 90 minutes post-injection) is on record as “minimal uptake”. The “uptake in the liver” value in data set [1] (i.v. tail vein, 30, 60 and 90 minutes post-injection, radioactivity counted) is “Prominent uptake”. For the same compound, the “uptake in the kidneys” value in data set [1] (i.v. tail vein, 30, 60 and 90 minutes post-injection, relative to liver) is given as “much less so”. In addition, the “organ uptake with cold unlabeled Ab-1 as blocking agent versus radiotracer alone” value in data set [1] (organs collected 30 minutes post-injection) is listed as “varied little”. For the same compound, in the data set on GPR44+1.1B4 cells (30 minutes post-injection), the “effect of blocking agent cold Ab-1 on uptake in 1.1B4 cells” value is given as “decreased by cold Ab-1” and the “uptake in other organs before or after administration of cold Ab-1” value is listed as “not different”. The “uptake in implanted 1.1B4 cells” value with GPR44+1.1B4 cells (30 minutes post-injection, 3 weeks after implantation) is listed as “highest uptake; also recorded: accumulated”. Besides, the “binding to GPR44+1.1B4 cells” value in the data set on GPR44+1.1B4 cells (in vivo, blocking with cold Ab-1) was “specifically binds”. Moreover, in the data set on human islets, the “specific binding to human islets” value is reported as “high specific binding” and the “uptake in human islets” value is recorded as “significant uptake; also recorded: accumulated”.
